# Results from US12629365B2, “Pharmaceutical compositions of 5-HT6 receptor antagonist” (SUVEN LIFE SCIENCES LIMITED, priority 2016, dated 2026).
# Assay: BCS classification
# Type: physicochemical
# Settings: based on our experimental results
smiles,measurement,value
"COc1ccc2c(c1)c(CN1CCN(C)CC1)cn2S(=O)(=O)c1ccccc1Br [Compound 1, 1-[(2-Bromophenyl)sulfonyl]-5-methoxy-3-[(4-methyl-1-piperazinyl)methyl]-1H-indole dimesylate monohydrate]",BCS classification,class I
